# Test system: Thrombus
# Test: MR-PET imaging in a rabbit model of occlusive arterial thrombus
# Format: in vivo
# Details: i.v., MR angiogram with gadofosveset
# Method: The occlusive thrombus model was similar to the one described above. Briefly, a male New Zealand white rabbit (2.5 kg) was sedated with a mixture of ketamine and xylazine and anaesthetized with isoflurane (1-2% in 70% N2O and 30% O2) and body temperature was kept at 37.5° C. A day old autologous blood clot was injected into the right internal carotid artery (ICA). The femoral vein was cannulated for intravenous delivery of the imaging agents. Simultaneous PET and MR were acquired on a clinical 3T MRI-BrainPET scanner using a home-built receive surface coil and a CP transmit coil. After baseline MR scans were acquired, the compound 21 was administered at a dose of […]. The blood pool MR contrast agent gadofosveset was injected at a dose of 0.1 mmol Gd/kg to acquire an angiographic image.
substance,measurement,value
Gd3-EP-2104R-Cu [Compound 21],PET signal at occluded right internal carotid artery,hyperintense PET signal in the right internal carotid (ICA)
